Measured values published in ChEMBL document CHEMBL1132774, “Tetrahydroisoquinoline derivatives containing a benzenesulfonamide moiety as potent, selective human beta3 adrenergic receptor agonists” (Bioorg Med Chem Lett, 2000).

What was measured:
[1] = molecular target: T1, Beta-2 adrenergic receptor (Homo sapiens, UniProt P07550); test: Inhibitory activity against CHO cells expressing human Beta-2 adrenergic receptor with [125I]-iodocyanopindolol; type: cell-based
Target sequence in this assay (P07550 whole entry): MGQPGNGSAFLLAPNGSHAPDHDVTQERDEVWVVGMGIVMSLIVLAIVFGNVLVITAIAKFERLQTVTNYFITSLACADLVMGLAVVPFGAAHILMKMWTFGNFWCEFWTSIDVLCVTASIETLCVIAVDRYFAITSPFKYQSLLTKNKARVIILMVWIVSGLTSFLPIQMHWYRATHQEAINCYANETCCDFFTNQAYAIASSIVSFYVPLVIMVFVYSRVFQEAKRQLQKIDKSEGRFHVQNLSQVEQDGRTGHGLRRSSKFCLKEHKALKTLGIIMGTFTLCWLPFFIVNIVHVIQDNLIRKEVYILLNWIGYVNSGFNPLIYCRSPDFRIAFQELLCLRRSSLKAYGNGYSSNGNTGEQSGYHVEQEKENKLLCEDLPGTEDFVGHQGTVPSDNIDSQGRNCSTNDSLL

[2] = molecular target: T2, Beta-3 adrenergic receptor (Homo sapiens, UniProt P13945); test: Inhibitory activity against human beta-3 adrenergic receptor (AR); type: functional
Target sequence in this assay (P13945 whole entry): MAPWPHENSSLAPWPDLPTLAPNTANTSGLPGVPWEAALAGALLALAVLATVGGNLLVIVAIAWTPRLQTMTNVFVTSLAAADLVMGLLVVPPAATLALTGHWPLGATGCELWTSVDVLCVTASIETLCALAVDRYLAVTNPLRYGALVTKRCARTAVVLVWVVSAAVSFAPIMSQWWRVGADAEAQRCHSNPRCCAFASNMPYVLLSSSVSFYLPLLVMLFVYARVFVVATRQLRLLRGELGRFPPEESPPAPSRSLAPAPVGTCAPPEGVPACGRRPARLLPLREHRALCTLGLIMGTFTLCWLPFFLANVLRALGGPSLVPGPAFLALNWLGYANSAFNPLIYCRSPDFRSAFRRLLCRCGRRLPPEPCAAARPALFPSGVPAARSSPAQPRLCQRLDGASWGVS

[3] = molecular target: T2, Beta-3 adrenergic receptor; test: Adenylyl cyclase activation at human beta-3 adrenergic receptor (AR); type: functional; set-up: concentration or dose not given beside the values
Target sequence in this assay (P13945 whole entry, looked up): as the sequence (P13945 whole entry) above

[4] = molecular target: T3, Beta-1 adrenergic receptor (Homo sapiens, UniProt P08588); test: (§1) Compound was evaluated for its adenylyl cyclase activation at human beta-1 adrenergic receptor (AR)
Target sequence in this assay (P08588 whole entry, looked up): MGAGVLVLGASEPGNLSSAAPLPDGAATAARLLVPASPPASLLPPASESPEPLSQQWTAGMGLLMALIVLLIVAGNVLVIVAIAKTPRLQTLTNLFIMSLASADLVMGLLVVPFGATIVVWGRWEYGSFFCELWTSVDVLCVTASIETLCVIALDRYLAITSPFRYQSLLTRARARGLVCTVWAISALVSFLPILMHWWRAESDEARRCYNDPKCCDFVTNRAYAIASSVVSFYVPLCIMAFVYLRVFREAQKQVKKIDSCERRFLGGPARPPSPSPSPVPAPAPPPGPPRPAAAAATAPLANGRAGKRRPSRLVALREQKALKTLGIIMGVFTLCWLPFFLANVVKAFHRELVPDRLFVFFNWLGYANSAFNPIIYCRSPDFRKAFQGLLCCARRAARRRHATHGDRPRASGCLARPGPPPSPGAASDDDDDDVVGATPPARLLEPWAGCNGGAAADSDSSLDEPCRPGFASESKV

[5] = molecular target: T1, Beta-2 adrenergic receptor; test: Compound was evaluated for its inhibitory activity against CHO cells expressing the cloned human beta-2 adrenergic receptor (AR) in the presence of [125I]-iodocyanopindolol; type: functional, cell-based
Target sequence in this assay (P07550 whole entry): as the sequence (P07550 whole entry) above

[6] = molecular target: T3, Beta-1 adrenergic receptor; test: Compound was evaluated for its inhibitory activity against CHO cells expressing the cloned human Beta-1 adrenergic receptor in the presence of [125I]iodocyanopindolol; type: cell-based
Target sequence in this assay (P08588 whole entry): as the sequence (P08588 whole entry, looked up) above

[7] = molecular target: T1, Beta-2 adrenergic receptor; test: Compound was evaluated for its inhibitory activity against human beta-2 adrenergic receptor (AR); type: functional
Target sequence in this assay (P07550 whole entry): as the sequence (P07550 whole entry) above

[8] = molecular target: T3, Beta-1 adrenergic receptor; test: Compound was evaluated for its inhibitory activity against human beta-1 adrenergic receptor (AR); type: functional
Target sequence in this assay (P08588 whole entry): as the sequence (P08588 whole entry, looked up) above

[9] = molecular target: T3, Beta-1 adrenergic receptor; test: Compound was evaluated for its inhibitory activity against CHO cells expressing the cloned human beta-1 adrenergic receptor (AR) in the presence of [125I]iodocyanopindolol; type: functional, cell-based
Target sequence in this assay (P08588 whole entry): as the sequence (P08588 whole entry, looked up) above

[10] = molecular target: T3, Beta-1 adrenergic receptor; test: as §1; type: functional; set-up: concentration or dose not given beside the values
Target sequence in this assay (P08588 whole entry, looked up): as above

[11] = molecular target: T2, Beta-3 adrenergic receptor; test: Compound was evaluated for its inhibitory activity against human beta-3 adrenergic receptor (AR) at a concentration of 100 nM; type: functional
Target sequence in this assay (P13945 whole entry): as the sequence (P13945 whole entry) above

[12] = molecular target: T1, Beta-2 adrenergic receptor; test: Compound was evaluated for its adenylyl cyclase activation at human beta-2 adrenergic receptor (AR); type: functional
Target sequence in this assay (P07550 whole entry, looked up): as the sequence (P07550 whole entry) above

[13] = molecular target: T3, Beta-1 adrenergic receptor; test: Compound was evaluated for its inhibitory activity against CHO cells expressing the cloned human beta-1 adrenergic receptor (AR) in the presence of [125I]-iodocyanopindolol; type: cell-based
Target sequence in this assay (P08588 whole entry): as the sequence (P08588 whole entry, looked up) above

| SMILES | IC50 [1] [nM] | EC50 [2] [nM] | Activation [3] [%] | Activation [4] [%] | IC50 [5] [nM] | IC50 [6] [nM] | EC50 [7] [nM] | EC50 [8] [nM] | IC50 [9] [nM] | Activation [10] [%] | EC50 [11] [nM] | Activation [12] [%] | IC50 [13] [nM] |
| --- | --- | --- | --- | --- | --- | --- | --- | --- | --- | --- | --- | --- | --- |
| COc1c(I)cc(CC2NCCc3nc(N)sc32)cc1I (stereo not given) | 56 | 800 | 36 |  |  |  |  |  |  |  |  |  |  |
| CCCCCCNC(=O)Nc1ccc(S(=O)(=O)Nc2ccc(CC3NCCc4cc(O)c(O)cc43)cc2)cc1 (stereo not given) | 200 | 66 | 82 |  |  | 1200 |  |  |  |  |  |  |  |
| CCCCCCNC(=O)Nc1ccc(S(=O)(=O)Nc2ccc(OCC3NCCc4cc(O)c(O)cc43)cc2)cc1 (stereo not given) | 300 |  |  |  |  | 1000 |  |  |  |  | 4 |  |  |
| COc1cc(C[C@@H]2NCCc3cc(O)c(O)cc32)cc(OC)c1OC [TRETOQUINOL] |  | 1.7 | 92 |  |  |  |  |  |  |  |  |  |  |
| COc1cc(-c2ccc(CC3NCCc4cc(O)c(O)cc43)cc2)cc(OC)c1OC (stereo not given) | 760 | 27 | 77 |  |  |  | 1500 | 6100 |  | 45 |  |  | 1800 |

More lines, main results first:

| IC50 [1] [nM] | EC50 [2] [nM] | Activation [3] [%] | Activation [4] [%] | IC50 [5] [nM] | IC50 [6] [nM] | EC50 [7] [nM] | EC50 [8] [nM] | IC50 [9] [nM] | Activation [10] [%] | EC50 [11] [nM] | Activation [12] [%] | SMILES | IC50 [13] [nM] |
| --- | --- | --- | --- | --- | --- | --- | --- | --- | --- | --- | --- | --- | --- |
|  | 16 | 72 | 23 | 160 | 2000 | 580 | 2400 |  |  |  |  | CCCCCCNC(=O)Nc1ccc(S(=O)(=O)Nc2ccc(-c3ccc(OCC4NCCc5cc(O)c(O)cc54)cc3)cc2)cc1 (stereo not given) |  |
|  | 6 | 91 |  | 3400 |  | 340 | 1800 | 3000 | 44 |  |  | CCCCCCNC(=O)Nc1ccc(S(=O)(=O)Nc2ccc(-c3ccc(CC4NCCc5cc(O)c(O)cc54)cc3)cc2)cc1 (stereo not given) |  |
| 990 |  |  |  |  | 6500 |  |  |  |  | 10 |  | CCCCCCNC(=O)Nc1ccc(S(=O)(=O)Nc2cccc(-c3ccc(OCC4NCCc5cc(O)c(O)cc54)cc3)c2)cc1 (stereo not given) |  |
| 300 |  |  |  |  | 1000 |  |  |  |  | 7 |  | CCCCCCNC(=O)Nc1ccc(S(=O)(=O)Nc2ccc3cc(CC4NCCc5cc(O)c(O)cc54)ccc3c2)cc1 (stereo not given) |  |
| 100000 | 600 | 64 |  |  |  | > 1000 | > 1000 | 100000 | 12 |  | 33 | CCCCCCNC(=O)Nc1ccc(S(=O)(=O)Nc2ccc(-c3cccc(CC4NCCc5cc(O)c(O)cc54)c3)cc2)cc1 (stereo not given) |  |
| > 100000 | 78 | 72 |  |  | 80000 |  |  |  |  |  |  | CCCCCCNC(=O)Nc1ccc(S(=O)(=O)Nc2ccc3cc(OCC4NCCc5cc(O)c(O)cc54)ccc3c2)cc1 (stereo not given) |  |
| 710 | 360 | 62 |  |  |  | 2700 | > 10000 | 530 | 22 |  |  | CCCCCCNC(=O)Nc1ccc(S(=O)(=O)Nc2cccc(-c3cccc(CC4NCCc5cc(O)c(O)cc54)c3)c2)cc1 (stereo not given) |  |
|  | 140 | 100 |  | 32000 |  | 1300 | 970 | 10000 | 69 |  |  | CCCCCCNC(=O)Nc1ccc(S(=O)(=O)Nc2cccc(-c3ccc(CC4NCCc5cc(O)c(O)cc54)cc3)c2)cc1 (stereo not given) |  |
